Drawing on US20260159520A1, “HETEROBIFUNCTIONAL COMPOUNDS AND METHODS OF TREATING DISEASE” (Halda Therapeutics OpCo, Inc., priority 2022, published 2026), this text covers GI50 for 8 compounds.

Bounds are passed on as bounds.

Assay type in all cases: cell-based
Experiment [1] has as its system T-Rex 293 cell line SC3 cells lacking increased expression of androgen receptor protein. The experiment can be described thus: Cellular growth inhibition, T-Rex 293 SC3 cells without doxycycline. The following applies: not exposed to doxycycline, 72 hours, CellTiter-Glo 2.0. In outline:
(§1)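 Doxycycline (10 ng/mL) was either included or omitted to toggle wild-type androgen receptor expression in SC3 cells, a T-Rex 293 clone, grown in stripped-serum, phenol red-free medium. After 72 hours with compound, viable cells were quantified by CellTiter-Glo 2.0.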

Experiment [2] concerns T47D cells. Briefly: Cellular growth inhibition assay for T47D cells. The following applies: Homo sapiens, 72 hours, CellTiter-Glo 2.0. In outline: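 Growth inhibition as GI50, fitted with four parameters to CellTiter-Glo luminescence after 72 h of compound exposure (0.5% DMSO). Cells were T47D, grown in insulin-supplemented (0.2 units/mL) DMEM with 10% FBS and treated one day post-seeding.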
(In general: Cellular ATP, detected with luciferase, serves as a proxy for viable cell number.)

Experiment [3] has as its system VCaP cells. The experiment can be described thus: Cellular growth inhibition assay for VCaP cells. To be noted: Homo sapiens, 72 hours, CellTiter-Glo 2.0.
Experiment [4] relates to T-Rex 293 cell line SC3 cells having increased expression of androgen receptor protein. Briefly: Cellular growth inhibition, T-Rex 293 SC3 cells with doxycycline (increased androgen receptor expression). The following applies: with 10 ng/mL doxycycline (increased androgen receptor), 72 hours, CellTiter-Glo 2.0. In outline: as §1

The GI50 is the concentration giving 50% growth inhibition. As to `CCc1cnn2c(NCc3ccc(N4CC(OCCN5CC6CN(c7ncc(C(=O)N[C@H]8C(C)(C)[C@H](Oc9ccc(C#N)c(Cl)c9)C8(C)C)cn7)CC6C5)C4)nc3)cc(N3CCCC[C@H]3CCO)nc12` (some centres unmarked) [Compound I-72], the GI50 in experiment [1] lay in the range of 0.1 to 1 µM; in experiment [2], 1.5 to 3 µM; in experiment [3], 0.1 to 1 µM; in experiment [4], 0.1 to 1 µM.
Turning to `CC(C)n1cc(-c2ccnc3[nH]c(C4CCN(CCN5CCN(CC6CCN(c7ncc(C(=O)NC8C(C)(C)C(Oc9ccc(C#N)c(Cl)c9)C8(C)C)cn7)CC6)CC5)CC4)cc23)ccc1=O` (centres unmarked) [Compound I-74, N-[3-(3-chloro-4-cyano-phenoxy)-2,2,4,4-tetramethyl-cyclobutyl]-2-[4-[[4-[2-[4-[4-(1-isopropyl-6-oxo-3-pyridyl)-1H-pyrrolo [2,3-b]pyridin-2-yl]-1-piperidyl]ethyl]piperazin-1-yl]methyl]-1-piperidyl]pyrimidine-5-carboxamide], the concentration for 50% growth inhibition (GI50) in experiment [1] was 0.1 to 1 µM; in experiment [2] it was below 0.5 µM; in experiment [3] it was below 0.1 µM; in experiment [4], below 0.1 µM.
On to `CCc1cnn2c(NCc3ccc(N4CCC(N5CCN(C6CN(c7ncc(C(=O)N[C@H]8C(C)(C)[C@H](Oc9ccc(C#N)c(Cl)c9)C8(C)C)cn7)C6)CC5)CC4)nc3)cc(N3CCCC[C@H]3CCO)nc12` [Compound I-86], for which the GI50 in experiment [1] is below 0.1 µM; in experiment [2], below 0.5 µM; in experiment [3] it was below 0.1 µM; in experiment [4] it was below 0.1 µM.
As to `CC1(C)[C@H](NC(=O)c2cnc(N3CCC(CN4CCN(CCN5C/C=C/CCOc6cccc(c6)-c6ccnc(n6)Nc6cccc(c6)C5)CC4)CC3)nc2)C(C)(C)[C@H]1Oc1ccc(C#N)c(Cl)c1` [Compound I-94], the GI50 was 1 to 3.5 µM in experiment [1], above 3 µM in experiment [2], above 3.5 µM in experiment [3] and 0.1 to 1 µM in experiment [4].
As for `Cc1ncc(-c2nc(Nc3ccc(C(=O)N4CC[C@H](N(C)CCOC5CCN(c6ncc(C(=O)N[C@H]7C(C)(C)[C@H](Oc8ccc(C#N)c(Cl)c8)C7(C)C)cn6)CC5)C4)cc3)ncc2F)n1C(C)C` [Compound I-95, N-[3-(3-chloro-4-cyano-phenoxy)-2,2,4,4-tetramethyl-cyclobutyl]-2-[4-[2-[[(3S)-1-[4-[[5-fluoro-4-(3-isopropyl-2-methyl-imidazol-4-yl)pyrimidin-2-yl]amino]benzoyl]pyrrolidin-3-yl]-methyl-amino]ethoxy]-1-piperidyl]pyrimidine-5-carboxamide], the GI50 in experiment [1] lay in the range of 1 to 3.5 µM; in experiment [2] it was 0.5 to 1.5 µM; in experiment [3] it was 1 to 3.5 µM; in experiment [4] it was 1 to 3.5 µM.
Take `Cc1ncc(-c2nc(Nc3ccc(C(=O)N4CC[C@H](N(C)CCOCCOCCOC5CCN(c6ncc(C(=O)N[C@H]7C(C)(C)[C@H](Oc8ccc(C#N)c(Cl)c8)C7(C)C)cn6)CC5)C4)cc3)ncc2F)n1C(C)C` [Compound I-96]: the GI50 in experiment [1] lay in the range of 1 to 3.5 µM; in experiment [2] it was 1.5 to 3 µM; in experiment [3] it was 1 to 3.5 µM; in experiment [4] it was 0.1 to 1 µM.
Consider `Cc1ncc(-c2nc(Nc3ccc(C(=O)N4CC[C@H](N(C)CCOCCOCCOCCOCCOC5CCN(c6ncc(C(=O)N[C@H]7C(C)(C)[C@H](Oc8ccc(C#N)c(Cl)c8)C7(C)C)cn6)CC5)C4)cc3)ncc2F)n1C(C)C` [Compound I-97], for which the GI50 in experiment [1] lay in the range of 1 to 3.5 µM; in experiment [2], 1.5 to 3 µM; in experiment [3], 1 to 3.5 µM; in experiment [4], 1 to 3.5 µM.
In the case of `CCc1cnn2c(NCc3ccc(OCCCN4CCN(CC5CCN(c6ccc(C(=O)N[C@H]7C(C)(C)[C@H](Oc8ccc(C#N)c(Cl)c8)C7(C)C)cc6)CC5)CC4)nc3)cc(N3CCCC[C@@H]3CCO)nc12` [II-1, N-((1r,3r)-3-(3-chloro-4-cyanophenoxy)-2,2,4,4-tetramethylcyclobutyl)-4-(4-((4-(3-((5-(((3-ethyl-5-((R)-2-(2-hydroxyethyl)piperidin-1-yl)pyrazolo[1,5-a]pyrimidin-7-yl)amino)methyl)pyridin-2-yl)oxy)propyl)piperazin-1-yl)methyl)piperidin-1-yl)benzamide], the GI50 in experiment [1] is 0.1 to 1 µM; in experiment [2], below 0.5 µM; in experiment [3], below 0.1 µM; in experiment [4], below 0.1 µM.
